Results published in the METLIN SMRT retention time set (Domingo-Almenara et al. 2019).

Assay: gradient 5% acetonitrile 3 min, to 50% in 2 min, to 85% in 15 min, held 3 min, 100 µL/min
Details: column: Zorbax Extend-C18 2.1 x 50 mm; eluents: water / acetonitrile, 0.1% formic acid
How it was run: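 In both positive and negative ionization mode, a quadrupole time-of-flight mass spectrometer coupled to HPLC analyzed pure standards run in mixtures of ~100 molecules. The Zorbax Extend-C18 column (2.1 × 50 mm, 1.8 μm) was operated at 100 μL/min with water and acetonitrile, each containing 0.1% formic acid. The dead volume was 40 μL and the dwell volume 900 μL. Retention time came from adduct peaks that were computationally picked and individually inspected by hand.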

Row | Structure (SMILES) | RP-LC retention time [s]
1 | CCn1nc(C)c2ccn(CC(=O)NCc3cc(F)cc(F)c3)c(=O)c21 | 757
2 | CC(=O)Nc1ccc(C(=O)N2CCC3(CC2)N=C(c2cccc(Br)c2)NO3)cc1 | 731
3 | COc1ccc(OC)c(NC(=O)N(C)CCc2noc(COc3ccc(F)cc3)n2)c1 | 919
4 | O=C(NC1CC1)c1ccc2c(c1)CCCN2S(=O)(=O)c1ccccc1 | 804
5 | COC(=O)C1=C(C)NC2=C(C(=O)c3ccccc32)C1c1ccc(OC)cc1OC (configuration not stated) | 856
6 | COc1ccc(C2c3c(n(C)c4ccccc34)C(=O)N2CC(=O)NCc2ccco2)cc1 (configuration not stated) | 924
7 | CCn1c(=O)c(C(=O)Nc2cccc(SC)c2)c(O)c2sccc21 | 1290
8 | Cc1ccc2c(Nc3ccc(F)c(Cl)c3)c(C(=O)N3CCOCC3)cnc2n1 | 601
9 | COc1ccc(-c2cc3nn(CC(=O)NCC4CCCO4)c(=O)n3c(C)n2)cc1 (configuration not stated) | 728
10 | Cc1ccc(CNC(=O)C2CCN(S(=O)(=O)c3cc(C(=O)N4CCCCCC4)cs3)CC2)o1 | 862
11 | CC1=C(c2cccc(Cl)c2)S(=O)(=O)N=C1N1CCCN(C(=O)c2ccco2)CC1 | 818
12 | Cc1csc(C(=O)NC2CNC(=O)C2)c1 (configuration not stated) | 572
13 | Cn1nc(-c2nnc(-c3ccccc3F)o2)c2c1CCN(S(=O)(=O)c1ccc3c(c1)CCC3)C2 | 1010
14 | O=C(NCc1cccs1)C1CCN(c2cnc(N3CCSCC3)nc2)CC1 | 751
15 | O=C(NCCN1CCOCC1)c1ccc2c(c1)CCCN2C(=O)c1ccccc1F | 602
16 | CCC(=O)Nc1ccc2c(c1)nc(CN1CCN(S(C)(=O)=O)CC1)n2CC | 586
17 | Cc1ccc(-c2csc(-c3cccn3CC(=O)NCC3CCCO3)n2)cc1 (configuration not stated) | 1020
18 | COCCOCC1CCN(C(=O)COc2cccc(OC)c2)CC1 | 709
19 | Cc1ccc(NC(=O)CN2C(=O)CCc3cc(S(=O)(=O)N4CCCCC4C)ccc32)cc1F (configuration not stated) | 1010
20 | COc1ccc(S(=O)(=O)N2CCC(c3noc(-c4cccc(C)c4)n3)CC2)cc1 | 1170
21 | CCc1cccc(NC(=O)C2CCN(S(=O)(=O)c3ccc4c(c3)sc(=O)n4C)CC2)c1 | 862
22 | CC(C)c1nc2nccc(-c3ccccc3)n2n1 | 827

Row | Structure (SMILES) | RP-LC retention time [s]
23 | Cc1cc(C)c(S(=O)(=O)N2CC(c3nc(-c4ccncc4)no3)C2)c(C)c1 | 978
24 | O=C(c1ccc2cc[nH]c2c1)N1CCN(C(=O)c2cc(-c3ccncc3)n[nH]2)CC1 | 594
25 | Cc1cc(-c2nnc(NC(=O)c3cc4cc([N+](=O)[O-])ccc4s3)o2)n(C)n1 | 789
26 | CC(=O)c1cccc(NC(=O)CN2C(=O)COc3ccc(C(=O)N(C)C)cc32)c1 | 651
27 | Cc1nc(NCCCn2ccnc2)nc(Nc2ccccc2)c1[N+](=O)[O-] | 589
28 | COc1ccc(C)cc1NC(=O)C1CCCN(S(=O)(=O)c2cc(-c3noc(C)n3)cs2)C1 (configuration not stated) | 1040
29 | Cc1nn(CC(=O)NCCC(C)C)c(=O)c2c(-n3cccc3)n(-c3ccc(Cl)cc3)nc12 | 1030
30 | O=C(Cn1nc(N2CCSCC2)c2ccccc2c1=O)Nc1ccccc1C(F)(F)F | 979
31 | CCC1CCCCN1S(=O)(=O)c1cc(-c2nnc(C)o2)co1 (configuration not stated) | 857
32 | COc1ccc(NC(=O)N2CCCN(C3CCN(Cc4ccc(F)cc4)C3=O)CC2)cc1 (configuration not stated) | 570
33 | Cc1ccc(-c2nnc(Cc3nc(-c4ccc(F)cc4)no3)o2)cc1F | 1100
34 | O=S(=O)(c1ccc(-c2noc(-c3ccc(Cl)cc3)n2)cc1)N1CCCC1 | 1260
35 | CCN1c2cc(Cl)ccc2C(=O)NC12CCN(C(=O)Nc1cc(C)ccc1OC)CC2 | 916
36 | CC1(C(=O)NC2CCN(c3cc(N4CCOCC4)cnn3)C2)CCCCC1 (configuration not stated) | 569
37 | O=C1NC2(CCN(C(=O)c3ccccc3)CC2)N=C1c1ccc(Cl)cc1 | 842
38 | O=C(C1COc2ccccc2O1)N1CCN(c2cc(-c3ccc(Cl)cc3)[nH]n2)CC1 (configuration not stated) | 926
39 | CCOc1ccccc1N1CCN(S(=O)(=O)c2nn(C)cc2C(=O)NC2CCCC2)CC1 | 1030
40 | COc1ccc(-c2cc(C(=O)O)c3ccccc3n2)cc1OC | 658
41 | CN1CCN(CCCNC(=O)C2CCN(c3nc4cccnc4s3)CC2)CC1 | 558
42 | Cc1ccc(S(=O)(=O)N2CCC(n3cnc4ccc(C)cc4c3=O)CC2)cc1 | 925
43 | CC(=O)N1CCc2cc(CNS(=O)(=O)c3ccccc3)ccc21 | 691
44 | O=C(NCc1ccc(C(F)(F)F)cc1)c1c(O)c2cccnc2[nH]c1=O | 1010

Row | Structure (SMILES) | RP-LC retention time [s]
45 | Cc1noc(C)c1C1CCCN1C(=O)Cc1ccc(Cl)cc1 (configuration not stated) | 809
46 | O=C(NCC1CCCO1)NC1CCN(c2nc3cccnc3n(Cc3ccccc3)c2=O)CC1 (configuration not stated) | 859
47 | CCNc1cc(N2CCC(CCC(=O)NCC3CC3)CC2)ncn1 | 588
48 | CSc1ccc(-c2noc(Cc3nnc(-c4ccc(Cl)cc4)o3)n2)cc1 | 1120
49 | CCN1CCN(c2ncc3c(n2)CCN(Cc2cccc(C)c2)C3)CC1 | 529
50 | CN(CCNC(=O)c1cc(S(=O)(=O)N2CCCCC2)ccc1Cl)Cc1ccccc1 | 711
51 | Cc1ccnc(NC(=O)C2CCN(S(=O)(=O)c3cc(C(=O)N4CCCCCC4)cs3)CC2)c1 | 638
52 | O=C(O)CSc1nnc(-c2ccc(Cl)cc2Cl)n1Cc1ccccc1 | 771
53 | Cc1ccnc(NC(=O)C2CCN(S(=O)(=O)c3c(C)nn(CC(=O)N4CCCC4)c3C)CC2)c1 | 619
54 | O=C(CC1CCN(S(=O)(=O)c2ccc(Cl)s2)CC1)NCCc1c[nH]c2ccccc12 | 945
55 | Cc1cccc(C(=O)N2CCc3cc(CNS(=O)(=O)c4ccc5c(c4)CC(=O)N5C)ccc32)c1 | 836
56 | CCN1C(=O)c2cc(S(=O)(=O)Nc3ccc(F)cc3)ccc2Oc2cccnc21 | 957
57 | COCC(=O)NC1CCN(c2ccc(C)c(C)c2)C1=O (configuration not stated) | 705
58 | COc1cccc(CNC(=O)C2(C)CCCN(C(=O)Nc3ccccc3Cl)C2)c1 (configuration not stated) | 919
59 | CCOc1ccc(C(=O)N2C[C@@H]3C[C@H]2C[C@@H]3NS(C)(=O)=O)cc1 | 658
60 | CCOC(=O)c1ccc(NC(=O)Cn2cnc3nc(-c4cccnc4)ncc3c2=O)cc1 | 686
61 | CN(c1cccc(C(F)(F)F)c1)S(=O)(=O)c1cc2n(c1)CCCNC2=O | 759
62 | COc1ccc(-c2nnc(N3CCC(C(=O)NCCN(C)C)CC3)o2)cc1 | 594
63 | COC(=O)c1cc(S(=O)(=O)N2CCN(c3ccccn3)CC2)c(C)n1C | 630
64 | CCN1CCOc2ccc(NC(=O)c3ccc4c(c3)OCO4)cc2C1=O | 675
65 | CC1=C(c2ccc(C)cc2)S(=O)(=O)N=C1N1CCC(NC(=O)c2ccoc2)CC1 | 805
66 | Cc1nn(Cc2ccc(C(=O)NCC3CC3)cc2)c(C)c1S(=O)(=O)N1CCC(C)CC1 | 888

Row | Structure (SMILES) | RP-LC retention time [s]
67 | CCCCN(C)C(=O)CCC(=O)Nc1ccc2nc(N3CCN(C)CC3)cc(C)c2c1 | 546
68 | CCn1cnc(S(=O)(=O)N2CCCC(C(=O)N3CCN(c4ccccc4)CC3)C2)c1 (configuration not stated) | 747
69 | Cc1ccc(NS(=O)(=O)c2cc3n(c2)CCN(CC(C)C)C3=O)cc1 | 794
70 | CCOCCCNC(=O)CCc1cc2cc(OC)ccc2[nH]c1=O | 615
71 | O=C(NCc1ccccc1Cl)C1=C2CCCN2c2ccc(F)cc2S1(=O)=O | 913
72 | Cc1ccccc1Nc1c(-c2ccc(Cl)cc2)nc2ccc(Cl)cn12 | 1050
73 | Cc1c(Cl)cccc1Nc1c(-c2ccc(Br)cc2)nc2cnccn12 | 1160
74 | Cc1cc(NS(=O)(=O)c2ccc3c(c2)C(=O)N(C)c2ncccc2O3)ccc1F | 951
75 | Cc1ccc(CN2CCC(CNC(=O)c3c(C)oc4ncnc(N5CCOCC5)c34)C2)cc1 (configuration not stated) | 853
76 | CCn1cc(-c2nc(C)c(C(=O)NCc3ccc(OC)cc3)s2)c2cccnc21 | 902
77 | COc1cccc(CNC(=O)C2(C)CCCN(C(=O)Nc3cc(Cl)ccc3C)C2)c1 (configuration not stated) | 982
78 | CCn1ncn2cc(S(=O)(=O)Nc3ccc(C)cc3C)cc2c1=O | 937
79 | CC(C)C(=O)N1CCc2c(c(C(=O)N3CCC(C(=O)NC4CCCCCC4)CC3)nn2C)C1 | 698
80 | O=c1ccc(-c2nc(-c3ccc(F)cc3)no2)nn1Cc1cccc(F)c1 | 1090
81 | O=C(c1ccc(Cl)cc1)N1CCc2nc(-c3ccc(Cl)cc3)ncc2C1 | 1140
82 | Cc1ccc(-c2nc(-c3ccc4c(c3)nc(C)c(=O)n4C)no2)cc1 | 1090
83 | CCCNC(=O)NCc1nc(-c2ccc(Cl)cc2)no1 | 806
84 | Cn1cc(CCNS(=O)(=O)c2ccccc2C(F)(F)F)c2cccnc21 | 764
85 | CCN1C(=O)COc2ccc(-c3csc(NC(=O)c4ccccc4F)n3)cc21 | 968
86 | CC(C)(CO)NC(=O)Cc1ccc(NC(=O)C2(c3ccc(F)cc3)CC2)cc1 | 734
87 | Cc1ccc(CNC(=O)[C@@]23CCCC[C@H]2N(C)C(=O)CC3)cc1 | 688
